{"source": "patent US20220054494A1", "about": "“METHODS FOR TREATING BLADDER AND URETHRA DYSFUNCTION AND DISEASE” (University of Pittsburgh - Of the Commonwealth System of …, priority 2019, published 2022)", "tested_on": "mitofusin 2 (MFN2)", "test": "Western immunoblotting, mitofusin 2", "type": "in vivo, rat", "conditions": "aged rats; oral 8-AG 5 mg/kg/day, 6 weeks", "description": "Western immunoblotting: One half of each bladder preparation was homogenized using Lysing Matrix D in a FastPrep 24 instrument (MP Biomedicals, Solon, Ohio) in HBSS (5 mM KCl, 0.3 mM KH2PO4, 138 mM NaCl, 4 mM NaHO3, 0.3 mM Na2HCO3, 0.3 mM Na2HPO4, 5.6 mM glucose and 10 mM Hepes, pH 7.4) containing complete protease inhibitor cocktail (1 tablet/10 ml, ROCHE®, Indianapolis, Ind.)) and phosphatase inhibitor cocktail (SIGMA®, 1:100). After centrifugation (13000 rpm; 15 min at 4° C.), the membrane protein fraction was prepared by suspending the membrane pellets in lysis buffer containing 0.3 M NaCl, 50 mM Tris-HCl (pH 7.6) and 0.5% Triton X-100 and the same concentration of protease inhibitors as above. The suspensions were incubated on ice and centrifuged (13000 rpm; 15 min at 4° C.). The protein concentrations of the combined supernatants were determined using the PIERCE® BCA protein assay (THERMO SCIENTIFIC®, Rockford, Ill.). […] As a loading control, total protein per sample was determined using Bio-Rad® Stain Free SDS-PAGE gel technology. UV-activated protein fluorescence was imaged on a CHEMIDOC® MP (BIO-RAD®). […] The volume (intensity) of each protein species was determined and normalized to total protein using Image Lab software (BIO-RAD®).", "note": "Entries after “also recorded” stand apart in the source; their conditions may differ.", "data": [{"smiles": "Nc1nc2[nH]c(N)nc2c(=O)[nH]1", "note": "[8-AG, 8-Aminoguanine]", "values": [{"measurement": "mitofusin 2 (MFN2) in bladder mucosa", "result": "reversed or restored to levels similar to the younger state; also recorded: restored changes similar to a younger state"}]}]}
